Measurements reported in ChEMBL document CHEMBL4270561, “Biological activity of doubly modified salinomycin analogs - Evaluation in vitro and ex vivo” (Eur J Med Chem, 2018).

How the values were obtained:
[1] = Resistance index, ratio of IC50 for human LoVo/DX cells to IC50 for human LoVo cells; format: functional
[2] = Selectivity index, ratio of IC50 for human MCF10A cells to IC50 for human LoVo cells; format: toxicity; details: MCF10A cells versus LoVo cells, read-out: Ratio IC50
[3] = Antiproliferative activity against human LoVo/DX cells after 72 hrs by SRB assay; format: functional, cell-based
[4] = Cell cycle arrest in human ALL5 cells assessed as accumulation at sub-G1 phase at 5 times antiproliferative IC50 after 96 hrs by propidium iodide staining based flow cytometry (reference value: 12%); format: functional
Breast carcinoma cell [5] = experiment: Ex vivo antitumor activity against patient derived breast cancer tissue assessed as decrease in tumor cell proliferation at 18.5 uM by Ki-67 staining based immunohistochemical analysis; format: functional; details: Homo sapiens, TDE = time-dependent effect
[6] = Cell cycle arrest in human ALL5 cells assessed as accumulation at sub-G1 phase at 5 times antiproliferative IC50 after 48 hrs by propidium iodide staining based flow cytometry (reference value: 7.8%); format: functional
[7] = Selectivity index, ratio of IC50 for human MCF10A cells to IC50 for human ALL5 cells; format: toxicity; details: MCF10A cells versus ALL5 cells, read-out: Ratio IC50
[8] = Antiproliferative activity against human ALL5 cells after 120 hrs by MTT assay; format: functional, cell-based; details: ALL5, 120 h
[9] = Cell cycle arrest in human ALL5 cells assessed as accumulation at sub-G1 phase at 5 times antiproliferative IC50 after 24 hrs by propidium iodide staining based flow cytometry (reference value: 6.07%); format: functional
MCF7 = experiment: Antiproliferative activity against human MCF7 cells after 72 hrs by SRB assay; format: functional, cell-based; details: MCF7, 72 h
[10] = Cell cycle arrest in human ALL5 cells assessed as accumulation at S-phase at 5 times antiproliferative IC50 after 96 hrs by propidium iodide staining based flow cytometry (reference value: 7.52%); format: functional
[11] = Cell cycle arrest in human ALL5 cells assessed as accumulation at S-phase at 5 times antiproliferative IC50 after 48 hrs by propidium iodide staining based flow cytometry (reference value: 9.82%); format: functional
[12] = Selectivity index, ratio of IC50 for human MCF10A cells to IC50 for human MCF7 cells; format: toxicity; details: MCF10A cells versus MCF7 cells, read-out: Ratio IC50
[13] = Selectivity index, ratio of IC50 for human MCF10A cells to IC50 for human LoVo/DX cells; format: toxicity; details: MCF10A cells versus LoVo/DX cells, read-out: Ratio IC50
[14] = Cell cycle arrest in human ALL5 cells assessed as accumulation at S-phase at 5 times antiproliferative IC50 after 24 hrs by propidium iodide staining based flow cytometry (reference value: 6.76%); format: functional
[15] = Cell cycle arrest in human ALL5 cells assessed as accumulation at G0/G1 phase at 5 times antiproliferative IC50 after 24 hrs by propidium iodide staining based flow cytometry (reference value: 79.7%); format: functional
Breast carcinoma cell [16] = experiment: Ex vivo antitumor activity against patient derived breast cancer tissue assessed as increase in number of dead tumor cells at 18.5 uM by H and E staining based immunohistochemical analysis; format: functional; details: Homo sapiens, TDE = time-dependent effect
[17] = Selectivity index, ratio of IC50 for human MCF10A cells to IC50 for human JIMT1 cells; format: toxicity; details: MCF10A cells versus JIMT1 cells, read-out: Ratio IC50
[18] = Cell cycle arrest in human ALL5 cells assessed as accumulation at G2/M-phase at 5 times antiproliferative IC50 after 48 hrs by propidium iodide staining based flow cytometry (reference value: 13.2%); format: functional
[19] = Cell cycle arrest in human ALL5 cells assessed as accumulation at G2/M-phase at 5 times antiproliferative IC50 after 24 hrs by propidium iodide staining based flow cytometry (reference value: 7.98%); format: functional
LoVo [20] = experiment: Antiproliferative activity against human LoVo cells after 72 hrs by SRB assay; format: functional, cell-based
[21] = Cell cycle arrest in human ALL5 cells assessed as accumulation at G0/G1 phase at 5 times antiproliferative IC50 after 48 hrs by propidium iodide staining based flow cytometry (reference value: 69.6%); format: functional
[22] = Cell cycle arrest in human ALL5 cells assessed as accumulation at G0/G1 phase at 5 times antiproliferative IC50 after 96 hrs by propidium iodide staining based flow cytometry (reference value: 69.8%); format: functional
[23] = Cell cycle arrest in human ALL5 cells assessed as accumulation at G2/M-phase at 5 times antiproliferative IC50 after 96 hrs by propidium iodide staining based flow cytometry (reference value: 11.1%); format: functional
JIMT-1 [24] = experiment: Antiproliferative activity against human JIMT1 cells after 72 hrs by SRB assay; format: functional, cell-based; details: JIMT-1, 72 h
MCF-10A [25] = experiment: Antiproliferative activity against human MCF10A cells after 72 hrs by SRB assay; format: cell-based
[26] = Selectivity index, ratio of IC50 for human MCF10A cells to IC50 for human SK-BR-3 cells; format: toxicity; details: MCF10A cells versus SK-BR-3 cells, read-out: Ratio IC50
SK-BR-3 [27] = experiment: Antiproliferative activity against human SK-BR-3 cells after 72 hrs by SRB assay; format: functional, cell-based; details: SK-BR-3, 72 h
[28] = Antiproliferative activity against human LoVo/DX cells at 100 ug/ml after 72 hrs by SRB assay relative to control; format: functional
SK-BR-3 [29] = experiment: Antiproliferative activity against human SK-BR-3 cells at 100 ug/ml after 72 hrs by SRB assay relative to control; format: functional
MCF-10A [30] = experiment: Antiproliferative activity against human MCF10A cells at 100 ug/ml after 72 hrs by SRB assay relative to control; format: cell-based
[31] = Antiproliferative activity against human ALL5 cells at 10 uM after 120 hrs by MTT assay relative to control; format: functional
JIMT-1 [32] = experiment: Antiproliferative activity against human JIMT1 cells at 100 ug/ml after 72 hrs by SRB assay relative to control; format: functional
LoVo [33] = experiment: Antiproliferative activity against human LoVo cells at 100 ug/ml after 72 hrs by SRB assay relative to control; format: functional

## CC[C@@H](C(=O)[C@@H](C)[C@@H](O)[C@H](C)[C@@H]1O[C@@H]([C@@H](CC)C(=O)NCCc2ccc(F)cc2)CC[C@@H]1C)[C@H]1O[C@]2(C=C[C@@H](OC(C)=O)[C@]3(CC[C@@](C)([C@H]4CC[C@](O)(CC)[C@H](C)O4)O3)O2)[C@H](C)C[C@@H]1C
[1]
  Ratio IC50: 0.88
[2]
  selectivity ratio: 11
[3]
  IC50: 3.5 µM
[4]
  Activity: 49.3%
Breast carcinoma cell [5]
  Activity: Tde
[6]
  Activity: 27.4%
[7]
  selectivity ratio: 24
[8]
  IC50: 1.8 µM
[9]
  Activity: 11%
MCF7
  IC50: 3.7 µM
[10]
  Activity: 1.55%
[11]
  Activity: 2.15%
[12]
  selectivity ratio: 12
[13]
  selectivity ratio: 12
[14]
  Activity: 4.18%
[15]
  Activity: 79.9%
Breast carcinoma cell [16]
  Activity: Tde
[17]
  selectivity ratio: 12
[18]
  Activity: 5.2%
[19]
  Activity: 5.08%
LoVo [20]
  IC50: 4 µM
[21]
  Activity: 65.6%
[22]
  Activity: 47.3%
[23]
  Activity: 1.96%
JIMT-1 [24]
  IC50: 3.7 µM
MCF-10A [25]
  IC50: 43 µM
[26]
  selectivity ratio: 11
SK-BR-3 [27]
  IC50: 3.8 µM

## CCOC(=O)O[C@@H]1C=C[C@]2(O[C@H]([C@@H](CC)C(=O)[C@@H](C)[C@@H](O)[C@H](C)[C@@H]3O[C@@H]([C@@H](CC)C(=O)OCC(F)(F)F)CC[C@@H]3C)[C@@H](C)C[C@H]2C)O[C@@]12CC[C@@](C)([C@H]1CC[C@](O)(CC)[C@H](C)O1)O2
[28]
  Activity: <=50%
SK-BR-3 [29]
  Activity: <=50%
MCF7
  IC50: 68 µM
MCF-10A [30]
  Activity: <= 50%
[31]
  Activity: <=50%
JIMT-1 [32]
  Activity: <=50%
LoVo [33]
  Activity: <=50%
